Source: ChEMBL document CHEMBL3638389, “Chemokine receptor antagonists” (2014)

Biological target: C-C chemokine receptor type 2 (Homo sapiens, UniProt P41597)
Test: Radioligand Binding Assay: Radioligand binding assays were performed in CHO cells expressing human CCR2B and Galpha±16 coupling protein. All compounds were dissolved in DMSO and assays run at a final DMSO concentration of 0.5% (v/v). [125I]-labeled human MCP-1 was purchased from PerkinElmer. Unlabelled human MCP-1 was purchased from PeproTech.Compounds were serially diluted in DMSO before diluting into assay buffer (25 mM HEPES, pH 7.4, 5 mM MgCl2, 1 mM CaCl2, 0.5% BSA) with cryo preserved CHO cells expressing human CCR2B and the Galpha±16 coupling protein (30x10^3/well) and [125I]-MCP-1 (50 pM). The reaction was incubated at room temperature for 90 minutes before transferring to GF/C filter membrane (PerkinElmer) pre-treated with 0.3% polyethyleneimine for 2 hours at 4 C. The filter membrane was washed six times with ice cold wash buffer (25 mM HEPES, pH 7.4, 5 mM MgCl2, 1 mM CaCl2, 500 mM NaCl, 0.01% (m/v) azide), dried, and sealed in a RLB sample bag (Agilent Technologies).
Type: cell-based

Chain of C-C chemokine receptor type 2 (P41597 whole entry): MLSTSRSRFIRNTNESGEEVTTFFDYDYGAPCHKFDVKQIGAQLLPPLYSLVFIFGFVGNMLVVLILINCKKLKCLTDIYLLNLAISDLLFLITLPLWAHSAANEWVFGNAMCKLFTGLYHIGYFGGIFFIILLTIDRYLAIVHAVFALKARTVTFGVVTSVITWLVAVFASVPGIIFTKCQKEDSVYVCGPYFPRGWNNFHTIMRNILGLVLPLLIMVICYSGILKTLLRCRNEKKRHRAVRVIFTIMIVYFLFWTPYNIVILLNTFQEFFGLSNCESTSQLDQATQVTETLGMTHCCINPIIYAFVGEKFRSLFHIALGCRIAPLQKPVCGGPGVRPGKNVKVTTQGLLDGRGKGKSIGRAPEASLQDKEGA

| Ki | SMILES | IC50 |
| --- | --- | --- |
|  | CO[C@@H]1COCC[C@@H]1N[C@@H]1C[C@H]2CCC[C@@]2(C(=O)N2C[C@@H]3C[C@H]2CN3c2cc(C(F)(F)F)cc(C(F)(F)F)c2)C1 | 1520 nM |
| 17 nM | CO[C@@H]1COCC[C@@H]1N[C@@H]1C[C@H]2CCC[C@@]2(C(=O)N2C[C@@H]3C[C@H]2CN3c2ccc(Cl)c(C(F)(F)F)c2)C1 | 17.6 nM |
